What was measured:
Type in all cases: functional, cell-based
Cannabinoid receptor 2 [1] = molecular target: Cannabinoid receptor 2 (Homo sapiens, UniProt P34972, V36M); assay: Partial agonist activity at CBR2 V361.35M mutant (unknown origin) expressed in HEK293T assessed as increase in ERK1/2 phosphorylation incubated for 7 mins in presence of cannabidiol by AlphaScreenSureFire method
Cannabinoid receptor 2 [2] = molecular target: Cannabinoid receptor 2 (Homo sapiens, UniProt P34972, A282M); assay: Partial agonist activity at CBR2 A2827.36M mutant (unknown origin) expressed in HEK293T assessed as increase in ERK1/2 phosphorylation incubated for 7 mins by AlphaScreenSureFire method
Cannabinoid receptor 2 (Homo sapiens, UniProt P34972, A282M), sequence (P34972 whole entry A282M): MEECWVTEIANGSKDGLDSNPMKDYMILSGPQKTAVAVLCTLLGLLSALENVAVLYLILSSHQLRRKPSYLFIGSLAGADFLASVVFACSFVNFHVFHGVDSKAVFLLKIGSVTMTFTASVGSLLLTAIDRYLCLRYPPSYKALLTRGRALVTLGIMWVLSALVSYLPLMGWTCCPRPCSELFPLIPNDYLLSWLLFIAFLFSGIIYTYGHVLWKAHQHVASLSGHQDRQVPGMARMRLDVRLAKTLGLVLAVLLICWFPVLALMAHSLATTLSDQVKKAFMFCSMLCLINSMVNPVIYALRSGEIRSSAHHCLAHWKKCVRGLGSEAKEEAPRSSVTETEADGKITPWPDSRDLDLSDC

[3] = test system: Cannabinoid receptor 2 (Homo sapiens), P34972 [A282M]; assay: Partial agonist activity at CBR2 A2827.36M mutant (unknown origin) expressed in HEK293T assessed as increase in ERK1/2 phosphorylation incubated for 7 mins by AlphaScreenSureFire method relative to control; details: filed as partial agonist
Cannabinoid receptor 2 (Homo sapiens), P34972 [A282M], sequence (P34972 whole entry A282M): as above

Cannabinoid receptor 2 [4] = molecular target: Cannabinoid receptor 2 (Homo sapiens, UniProt P34972, V113M); assay: Partial agonist activity at CBR2 V1133.32M mutant (unknown origin) expressed in HEK293T assessed as increase in ERK1/2 phosphorylation incubated for 7 mins in presence of cannabidiol by AlphaScreenSureFire method
Cannabinoid receptor 2 (Homo sapiens, UniProt P34972, V113M), sequence (P34972 whole entry V113M): as the sequence (P34972 whole entry A282M) above, with V113M, M282A counted along it

[5] = test system: Cannabinoid receptor 2 (Homo sapiens), P34972 [S285L]; assay: Partial agonist activity at CBR2 S2857.39L mutant (unknown origin) stably expressed in HEK293T assessed as decrease in forskolin induced cAMP level preincubated for 15 mins followed by forskolin addition incubated for 15 mins by HTRF assay relative to control; details: filed as partial agonist, time 30.0 min
Cannabinoid receptor 2 (Homo sapiens), P34972 [S285L], sequence (P34972 whole entry S285L): as the sequence (P34972 whole entry A282M) above, with M282A, S285L counted along it

Cannabinoid receptor 2 (Homo sapiens, UniProt P34972, V36M), sequence (P34972 whole entry V36M): as the sequence (P34972 whole entry A282M) above, with V36M, M282A counted along it

## CCCC(C)(C)c1cc(O)c2c(c1)OC(C)(C)[C@@H]1CC=C(C)C[C@@H]21
Cannabinoid receptor 2 [1]
  EC50: 39.8 nM
Cannabinoid receptor 2 [2]
  EC50: 20 nM
[3]
  Emax: 376%
Cannabinoid receptor 2 [4]
  EC50: 39.8 nM
[5]
  Emax: 49.3%

Source: ChEMBL document CHEMBL5096191 (J Med Chem, 2021)
